Reference: US20060128792A1, “Deguelin as a chemopreventive agent for lung cancer” (priority 2002, published 2006)
Where “and” joins values, the source holds several entries; their conditions need not be identical. Equal entries are not always repeated.

Key:
[1] = tested on: 1799 cells; test: Apoptosis assay (TUNEL, APO-BRDU kit, flow cytometry; DNA fragmentation); type: cell-based; settings: for apoptosis in 1799 cells (TUNEL, flow cytometry): 3 days
Protocol: Apoptosis assay. Normal, premalignant, and malignant HBE cells were exposed to v various doses of deguelin for 3 days. […] Both adherent and floating cells were combined for the assessment of apoptosis using the APO-BRDU staining kit (Phoenix Flow Systems, San Diego, Calif.). Briefly, floating and attached cells dispersed with trypsin-EDTA were pelleted, washed, and fixed by 1% paraformaldehyde followed by 70% ethanol. The fixed cells were washed and incubated with DNA-labeling solution containing terminal deoxynucleotidyl transferase (TdT) reaction buffer, TdT enzyme, and bromodeoxyuridine triphosphate (Br-dUTP). Cells were rinsed, resuspended with fluorescein-PRB-I antibody solution, and analyzed by flow cytometry in the presence of PI/RNase solution. All analyses were performed based on 3000 to 10,000 events using a FACScan flow cytometer (Becton Dickinson, San Jose, Calif.) equipped with a 488-nm argon ion laser and CellQuest software. A dual display of DNA area (linear red fluorescence) and Br-dUTP incorporation (FITC-PRB-1) was used to determine the percentage of apoptotic cells.
The percentage of dead cells was determined by fluorescent-activated cell sorting (FACS) analysis of PI-stained nuclei. Apoptosis was also determined by the detection of nucleosomal DNA fragmentation, which was measured using the TACS apoptotic DNA Jaddering kit (Trevigen, Inc., Gaithersburg, Md.) according to the manufacturer's protocol. […] Apoptosis was analyzed using the APO-BRDU staining kit (Phoenix Flow Systems) as described above.

[2] = tested on: Sk-mes; test: MTT assay, growth inhibition by deguelin or deguelin derivatives; type: cell-based; settings: 3 days
[3] = tested on: H226B; test: as above; type: cell-based; settings: 3 days
[4] = tested on: H596; test: as above; type: cell-based; settings: H596, 3 days
[5] = tested on: NHBE cells; test: Cell cycle analysis by flow cytometry (propidium iodide); type: cell-based; settings: 3 days
Protocol: (§1) Cell Cycle Analysis. Cells were plated on 10-cm dishes 1 day before treatment. After treatment with deguelin for 3 days, floating and adherent cells were harvested by trypsinization, fixed with 1% paraformaldehyde and 70% ethanol, stained with propidium iodide PI), and subjected to flow cytomnetric analysis to determine the percentages of cells in specific phases of the cell cycle (G1, S, and G2/M) as described previously (Sun et al., 1997).

[6] = tested on: 1799 cells; test: as above; type: cell-based; settings: 3 days
Protocol: as §1

[7] = tested on: chorioallantoic membrane (CAM) vessel formation; test: CAM assay, anti-angiogenic activity; type: in vivo, chick embryos
Protocol: The anti-angiogenic activity of deguelin was assessed using a CAM assay. Chick embryos were incubation for 3 days after which, about 2 ml of egg albumin was removed from the embryo with a hypodermic needle to allow the CAM and yolk sac to drop away from the shell membrane. On day 3.5, the shell was punched out and removed and the shell membrane was peeled away. […] After the two day incubation period, 500 μl of 10% fat emulsion was injected into the chorioallantoic membrane and observed microscopically.
Retinoic acid, an anti-angiogenic compound, was used as a positive control for determining anti-angiogenic response. […] This independent experiment was repeated three times with more than 20 eggs.

[8] = tested on: H1299; test: MTT assay, growth inhibition by deguelin or deguelin derivatives; type: cell-based; settings: H1299, 3 days
[9] = tested on: bFGF-induced angiogenesis; test: Matrigel plug assay, bFGF-induced angiogenesis; type: in vivo, nude mice; settings: 5 nmole deguelin plus bFGF, seven days
Protocol: Inhibition of angiogenesis by deguelin was also evaluated using the Matrigel™ plug assay, an established in vivo angiogenesis model, using nude mice. Matrigel alone was used as a negative control, 100 ng/ml bFGF and 72 units/ml heparin in a vehicle of 0.1% BSA/PBS (bFGF) for a positive control, 5 nmole deguelin alone, and 5 nmole deguelin plus bFGF were included. Seven days after injection, mice were sacrificed. […] 1, 1 and 10 μM concentrations of deguelin in these cells. All of these findings indicated the anti-angiogenic activity of deguelin.

[10] = tested on: 1799 cells; test: MTT assay, viability of 1799 cells (also after Ad5CMV-MyrAkt-HA infection); type: cell-based
From the text: Cells and Cell Cultures. […] Tumors developed 6 months later. […] (Klein-Szanto et al., 1992).

[11] = tested on: Cal1; test: MTT assay, growth inhibition by deguelin or deguelin derivatives; type: cell-based; settings: 3 days

## COc1cc2c(cc1OC)[C@@H]1C(=O)c3ccc4c(c3O[C@@H]1CO2)C=CC(C)(C)O4 [Deguelin]
[1]; 10^−7 M deguelin, 2 days
  induction of apoptosis, Ad5CMV-Myr.Akt.HA-infected 1799 cells: less than 10%
  induction of apoptosis, uninfected or empty virus-infected 1799 cells: About 40%
[1]; 10^−7 M deguelin
  apoptosis in 1799 cells (TUNEL, flow cytometry): more than 90%
[1]; 10^−8 M deguelin
  apoptosis in 1799 cells (TUNEL, flow cytometry): 68.5%
[1]; three days of treatment, dose-dependent
  DNA fragmentation in 1799 cells: induced the generation of nucleosomal-sized ladders of DNA fragments
[2]; deguelin 10^−6M
  Avg. % con: 0.45 % con
  MTT value, mean of replicates (unheaded line): 0.121
  MTT value, replicate (unheaded line): 0.107 and 0.135 and 0.122
[2]; deguelin 10^−8M
  Avg. % con: 0.79 % con
  MTT value, mean of replicates (unheaded line): 0.211
  MTT value, replicate (unheaded line): 0.207 and 0.209 and 0.216
[2]; deguelin 10^−10M
  Avg. % con: 0.92 % con
  MTT value, mean of replicates (unheaded line): 0.247
  MTT value, replicate (unheaded line): 0.243 and 0.223 and 0.274
[2]; deguelin 10^−12M
  Avg. % con: 0.96 % con
  MTT value, mean of replicates (unheaded line): 0.258
  MTT value, replicate (unheaded line): 0.253 and 0.258 and 0.264
[3]; deguelin 10^−6M
  Avg. % con: 0.34 % con
  MTT value, mean of replicates (unheaded line): 0.113
  MTT value, replicate (unheaded line): 0.117 (2×) and 0.106
[3]; deguelin 10^−8M
  Avg. % con: 0.46 % con
  MTT value, mean of replicates (unheaded line): 0.150
  MTT value, replicate (unheaded line): 0.153 and 0.147 and 0.149
[3]; deguelin 10^−10M
  Avg. % con: 0.86 % con
  MTT value, mean of replicates (unheaded line): 0.283
  MTT value, replicate (unheaded line): 0.295 and 0.282 and 0.272
[3]; deguelin 10^−12M
  Avg. % con: 0.91 % con
  MTT value, mean of replicates (unheaded line): 0.299
  MTT value, replicate (unheaded line): 0.274 and 0.32 and 0.304
[4]; deguelin 10^−6M
  Avg. % con: 0.62 % con
  MTT value, mean of replicates (unheaded line): 0.290
  MTT value, replicate (unheaded line): 0.29 and 0.298 and 0.281
[4]; deguelin 10^−8M
  Avg. % con: 0.67 % con
  MTT value, mean of replicates (unheaded line): 0.314
  MTT value, replicate (unheaded line): 0.324 and 0.311 and 0.307
[4]; deguelin 10^−10M
  Avg. % con: 0.67 % con
  MTT value, mean of replicates (unheaded line): 0.313
  MTT value, replicate (unheaded line): 0.314 and 0.338 and 0.287
[4]; deguelin 10^−12M
  Avg. % con: 0.76 % con
  MTT value, mean of replicates (unheaded line): 0.358
  MTT value, replicate (unheaded line): 0.386 and 0.372 and 0.317
[5]
  change in NHBE cell cycle: did not induce detectable change
[6]; 10^−7 M deguelin
  1799 cells accumulated at the G2/M phase: 40.2%
[6]; 10^−8 M deguelin
  1799 cells accumulated at the G2/M phase: 17.3%
[7]; 5 nmol/egg, 2 days
  anti-angiogenic activity (percentage of positive eggs): 59.2%
[7]; CAM assay, without any signs of thrombosis and hemorrhage
  egg lethality: negligible
[8]; deguelin 10^−6M
  Avg. % con: 0.36 % con
  MTT value, mean of replicates (unheaded line): 0.048
  MTT value, replicate (unheaded line): 0.052 and 0.043 and 0.049
[8]; deguelin 10^−8M
  Avg. % con: 0.78 % con
  MTT value, mean of replicates (unheaded line): 0.104
  MTT value, replicate (unheaded line): 0.101 and 0.108 and 0.103
[8]; deguelin 10^−10M
  Avg. % con: 0.73 % con
  MTT value, mean of replicates (unheaded line): 0.098
  MTT value, replicate (unheaded line): 0.119 and 0.087 and 0.089
[8]; deguelin 10^−12M
  Avg. % con: 0.98 % con
  MTT value, mean of replicates (unheaded line): 0.132
  MTT value, replicate (unheaded line): 0.121 and 0.136 and 0.138
[9]
  bFGF-induced angiogenesis in Matrigel plugs: markedly inhibit
[10]; 1 day, concentration as low as 10^−9 M
  viable number of 1799 cells: reduced
[10]; 48 h, 10^−7 M deguelin, 2 days, read-out: viable cells, 1799 cells infected with 5×10^3 particles/cell Ad5CMV-Myr.Akt.HA
  viability at 0.1 µM: > 80%
[11]; deguelin 10^−6M
  Avg. % con: 0.54 % con
  MTT value, mean of replicates (unheaded line): 0.132
  MTT value, replicate (unheaded line): 0.13 and 0.128 and 0.138
[11]; deguelin 10^−8M
  Avg. % con: 0.88 % con
  MTT value, mean of replicates (unheaded line): 0.214
  MTT value, replicate (unheaded line): 0.204 and 0.221 and 0.216
[11]; deguelin 10^−10M
  Avg. % con: 1.16 % con
  MTT value, mean of replicates (unheaded line): 0.281
  MTT value, replicate (unheaded line): 0.29 and 0.294 and 0.26
[11]; deguelin 10^−12M
  Avg. % con: 1.30 % con
  MTT value, mean of replicates (unheaded line): 0.317
  MTT value, replicate (unheaded line): 0.305 and 0.328 and 0.319
